Data as given in patent US5780254A, “Method for detection of herbicides” (Sandoz Ltd, priority 1996, dated 1998).
Where two headings read alike, the source gives them in different places.

Experiments:
Arabidopsis seeds [1] = experiment: Arabidopsis reversal assay with antidote compounds; format: in vivo; details: for Growth, % of Control: probe compound at 1.5× lethal concentration; for growth without the antidote (in words): probe compound alone, no antidote
Experimental: The solutions are filter sterilized prior to addition. FIG. 4 represents a typical set up in a reversion assay for discovering inhibitors of AMP biosynthesis.
The left side (columns 1-3) of the 24-well microtiter plate is designed for controls, and the right side (columns 4-6) are designated for one probe compound. […] Rows B,C and D are supplemented with three doses of an antidote for the control and probe compound. […] The three doses are 50,100 and 150 μl respectively.
Forty ml of Arabidopsis growth media as described in Example 1 is sterilized and allowed to cool to about 45° C. A probe compound (at 1.5× lethal concentration) is added to columns 4 through 6 (right half of the plate). Media is distributed at 1.0 ml per well to all wells. Sterile seeds are added to each well as described above. As in Example 1, the plate is incubated and growth is scored.

[2] = target: T1, adenylosuccinate synthetase (ADSS) isolated from maize (Zea mays, UniProt O24578); experiment: ADSS enzyme assay (HPLC and spectrophotometric), maize ADSS; format: biochemical
T1 construct: ADSS is obtained from 4-5 day old, etiolated seedlings of Zea mays; from tissue; host or cells: 4-5 day old etiolated maize seedlings
Experimental: (§1) ADSS is obtained from 4-5 day old, etiolated seedlings of Zea mays. Seedlings are homogenized in a Waring blender with an equal volume (grams of tissue=mls of buffer) of extraction buffer containing 50 mM EPPS, pH 7.5, 5 mM MgCl2, 0.1 mM EDTA, 5 mM sodium bisulfite, 5 mM DTT, 0.1 mM phenylmethanesulfonyl fluoride and 10% glycerol. The extract is expressed through Miracloth (Calbiochem, La Jolla, Calif.) sandwiched between layers of cheesecloth. To precipitate phenolics and nucleic acids, 0.2 to 0.4% w/v protamine sulfate is added to the extract. The extract is stirred for 30 minutes, and then centrifuged at 45,000×G for 60 minutes. The resulting supernatant is fractionated with ammonium sulfate. Proteins are retained which precipitate at concentrations of ammonium sulfate greater than 45% saturation, but less than 55% saturation. Similar methods are used to isolate ADSS from wheat germ, E. coli and rat liver. ADSS activity is further purified by subjecting the preparation to DEAE cellulose chromatography. The column is equilibrated with chromatography buffer consisting of 50 mM EPPS, pH 7.5, 10% glycerol, 0.1 mM EDTA, 5 mM MgCl2 and 1 mM DTT. After loading the enzyme preparation, the column is washed with two bed volumes of the chromatography buffer, then eluted with a linear, 10-bed-volume gradient of 0 to 0.4M KCl dissolved in the same buffer. The peak of ADSS activity elutes at a KCl concentration of about 150 mM. Fractions containing activity are pooled and the proteins concentrated by ultrafiltration. At this stage, the enzyme is suitable for high capacity screening tests that are designed to discover inhibitory compounds. Alternatively, hydrophobic interaction chromatography can be used instead of DEAE-cellulose. This material is optionally further purified by passage through a column of Sephadex G-75 equilibrated with the chromatography buffer described above. The peak of ADSS activity elutes at a retention volume corresponding to a molecular weight of approximately 50,000 Da.
ADSS is assayed by anion exchange HPLC and by a continuous spectrophotometric assay. For the former, enzyme is diluted appropriately with 50 mM EPPS, pH 8.3, 10% ethylene glycol, 10 mM potassium phosphate and 1 mM MgCl2 to a volume of 92 μL. […] Reactions are stopped by adding 1 μL of 4N HCl. 95 μL of the reaction mixture is injected to a Hamilton PRP-X100 column equilibrated with 3% acetonitrile. Reactants and products are eluted with a convex gradient (Curve=-2) to 6% 1M potassium phosphate, pH 7, and 12% 2M KCl delivered during a span of 30 min by a Perkin-Elmer 410 BIO pump. The column eluate is monitored at 270 nm using a Perkin-Elmer LC 480 diode array detector. Integrated peaks are quantified from standard curves. Identity of the products of the ADSS reaction, GDP and adenylosuccinate, are determined by comparing their retention times and spectra with those of authentic standards, purchased from Sigma Chemical Co.
For the spectrophotometric assay, reaction mixtures are the same as above, except that the volume is doubled. […] The optical density increases as AS is formed. […] This method of quantification was validated using the HPLC method.

ADSS from wheat germ = target: T2, ADSS from wheat germ (Triticum aestivum, UniProt O24396); experiment: ADSS enzyme assay, wheat germ ADSS; format: biochemical
T2 construct: from tissue
Experimental: as §1, with “Fractions containing activity are pooled and the proteins concentrated by ultrafiltration. At this stage, the enzyme is suitable for high capacity screening tests that are designed to discover inhibitory compounds. Alternatively, hydrophobic interaction chromatography can be used instead of DEAE-cellulose. This material is optionally further purified by passage through a column of Sephadex G-75 equilibrated with the chromatography buffer described above. The peak of ADSS activity elutes at a retention volume corresponding to a molecular weight of approximately 50,000 Da.” left out
(§2) ADSS is assayed by anion exchange HPLC and by a continuous spectrophotometric assay. […] The column eluate is monitored at 270 nm using a Perkin-Elmer LC 480 diode array detector. Integrated peaks are quantified from standard curves. Identity of the products of the ADSS reaction, GDP and adenylosuccinate, are determined by comparing their retention times and spectra with those of authentic standards, purchased from Sigma Chemical Co.
(§3) For the spectrophotometric assay, reaction mixtures are the same as above, except that the volume is doubled. […] This method of quantification was validated using the HPLC method.

ADSS from E. coli = target: T3, ADSS from E. coli (Escherichia coli, UniProt P0A7D4); experiment: ADSS enzyme assay, E. coli ADSS; format: biochemical; details: E. coli ADSS (FIG. 6)
T3 construct: endogenous in cells; host or cells: E. coli
Experimental: as §1
as §2, with “assay. For the former, enzyme is diluted appropriately with 50 mM EPPS, pH 8.3, 10% ethylene glycol, 10 mM potassium phosphate and 1 mM MgCl2 to a volume of 92 μL.” for “assay.”
as §3

ADSS from rat liver = target: T4, ADSS from rat liver (Rattus norvegicus, UniProt D4AEP0); experiment: ADSS enzyme assay, rat liver ADSS; format: biochemical; details: rat liver ADSS (FIG. 6)
T4 construct: from tissue; host or cells: rat liver
Experimental: as §1
as §2, with “assay. For the former, enzyme is diluted appropriately with 50 mM EPPS, pH 8.3, 10% ethylene glycol, 10 mM potassium phosphate and 1 mM MgCl2 to a volume of 92 μL.” for “assay.”
as §3

[3] = system: adenylosuccinate lyase (ASL); experiment: Assay of adenylosuccinate lyase (ASL); format: biochemical, Zea mays; details: 1 mM concentration (data not shown)
Experimental: ASL is obtained from three day old, etiolated seedlings of Zea mays (maize). Seedlings are homogenized in a Waring blender with an equal volume (grams of tissue=mls of buffer) of 20 mM potassium phosphate buffer (KP buffer) containing 1 mM DTT. The slurry is then filtered through a cheese cloth and the filtrate subjected to 100,000×g centrifugation for 60 minutes. The clear supernatant is used for assaying ASL activity.
A typical reaction mixture in 1 mL contains 100-300 μL of ASL and 0.15 mM adenylosuccinate (30 μL of a 5 mM solution in KP buffer), the rest being KP buffer. Disappearance of absorbance at 280 nm is followed as a function of time to determine the rate of ASL activity. Inhibitors when needed are included to a final concentration of 1 mM in the assay mixture to observe the effect on the ASL activity. Compounds hydantocidin, N-acetylhydantocidin, NAP-H and hadacidin had no effect on the rate of ASL activity at 1 mM concentration (data not shown).

Arabidopsis seeds [4] = experiment: Arabidopsis bioassay, determination of the lethal concentration (LC 90); details: read-out: lethal concentration (LC 90)
glutamine synthetase = details: background statement; cited from earlier work
[5] = background statement; cited from earlier work
[6] = antidote Adenosine + Guanosine 0.5-5.0 mM
[7] = antidote Cytidine + Uridine 0.5-5.0 mM
[8] = antidote Hypoxanthine 0.5-5.0 mM

T1 sequence (O24578 45-484): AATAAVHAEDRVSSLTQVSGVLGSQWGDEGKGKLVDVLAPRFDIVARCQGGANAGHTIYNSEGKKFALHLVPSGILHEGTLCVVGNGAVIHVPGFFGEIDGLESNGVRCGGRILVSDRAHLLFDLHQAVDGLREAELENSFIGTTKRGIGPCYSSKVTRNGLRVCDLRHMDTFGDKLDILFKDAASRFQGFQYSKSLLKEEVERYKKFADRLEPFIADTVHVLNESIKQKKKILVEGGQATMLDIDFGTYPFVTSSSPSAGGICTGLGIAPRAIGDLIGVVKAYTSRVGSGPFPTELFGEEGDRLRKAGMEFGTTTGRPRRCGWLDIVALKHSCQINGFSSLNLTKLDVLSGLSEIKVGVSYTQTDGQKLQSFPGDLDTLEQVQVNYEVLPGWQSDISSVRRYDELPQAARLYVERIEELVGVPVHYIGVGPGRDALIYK
T3 sequence (P0A7D4 2-432): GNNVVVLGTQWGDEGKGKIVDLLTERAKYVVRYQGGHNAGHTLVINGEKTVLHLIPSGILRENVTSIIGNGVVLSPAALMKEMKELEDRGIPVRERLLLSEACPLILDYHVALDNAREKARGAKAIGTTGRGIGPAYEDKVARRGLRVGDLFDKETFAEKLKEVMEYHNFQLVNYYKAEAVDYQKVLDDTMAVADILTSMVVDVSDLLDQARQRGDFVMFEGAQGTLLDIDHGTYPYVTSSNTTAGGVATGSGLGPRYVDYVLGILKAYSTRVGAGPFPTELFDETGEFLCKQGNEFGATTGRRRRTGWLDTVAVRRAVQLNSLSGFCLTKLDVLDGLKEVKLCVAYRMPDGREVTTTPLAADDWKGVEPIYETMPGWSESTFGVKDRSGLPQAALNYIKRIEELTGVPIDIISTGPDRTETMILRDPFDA
T2 sequence (O24396 whole entry): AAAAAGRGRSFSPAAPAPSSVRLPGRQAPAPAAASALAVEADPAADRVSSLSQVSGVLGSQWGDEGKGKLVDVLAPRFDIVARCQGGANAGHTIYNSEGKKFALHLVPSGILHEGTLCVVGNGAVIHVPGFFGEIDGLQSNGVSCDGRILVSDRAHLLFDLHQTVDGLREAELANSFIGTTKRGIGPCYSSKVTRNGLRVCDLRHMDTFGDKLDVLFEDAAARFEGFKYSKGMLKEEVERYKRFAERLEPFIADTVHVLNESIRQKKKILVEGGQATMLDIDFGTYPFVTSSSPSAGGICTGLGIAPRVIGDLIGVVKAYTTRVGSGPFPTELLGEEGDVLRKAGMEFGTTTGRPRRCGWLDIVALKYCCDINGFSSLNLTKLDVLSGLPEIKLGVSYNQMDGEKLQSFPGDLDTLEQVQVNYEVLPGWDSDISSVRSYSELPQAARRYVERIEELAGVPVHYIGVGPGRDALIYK
T4 sequence (D4AEP0 1-456): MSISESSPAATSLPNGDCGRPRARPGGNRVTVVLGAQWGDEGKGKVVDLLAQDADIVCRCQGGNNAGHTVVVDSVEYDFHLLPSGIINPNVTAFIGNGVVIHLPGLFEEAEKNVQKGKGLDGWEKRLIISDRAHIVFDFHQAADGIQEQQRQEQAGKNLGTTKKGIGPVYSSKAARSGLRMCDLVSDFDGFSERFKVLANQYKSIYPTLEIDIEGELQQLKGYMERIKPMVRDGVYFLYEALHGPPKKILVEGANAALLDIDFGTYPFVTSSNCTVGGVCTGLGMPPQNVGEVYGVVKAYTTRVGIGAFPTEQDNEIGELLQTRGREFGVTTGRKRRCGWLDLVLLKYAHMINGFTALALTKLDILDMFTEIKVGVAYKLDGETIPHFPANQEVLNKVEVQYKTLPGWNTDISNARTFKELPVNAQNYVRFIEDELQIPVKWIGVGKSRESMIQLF

Molecule: 5'-Phospho-N-acetyl-hydantocidin [NAP-H]
- Growth, % of Control (Arabidopsis seeds [1]; No antidote, 0 mM): 0%
- Growth, % of Control (Arabidopsis seeds [1]; antidote ADP 0.5-5.0 mM): 100%
- Growth, % of Control (Arabidopsis seeds [1]; antidote AMP 0.5-5.0 mM): 100%
- Growth, % of Control (Arabidopsis seeds [1]; antidote ATP 0.5-5.0 mM): 40%
- Growth, % of Control (Arabidopsis seeds [1]; antidote Adenine 0.5-5.0 mM): 65%
- Growth, % of Control (Arabidopsis seeds [1]; antidote Adenosine 0.5-5.0 mM): 80-100%
- Growth, % of Control (Arabidopsis seeds [1]; [6]): 80%
- Growth, % of Control (Arabidopsis seeds [1]; [7]): 0%
- Growth, % of Control (Arabidopsis seeds [1]; antidote Guanine 0.5-5.0 mM): 0%
- Growth, % of Control (Arabidopsis seeds [1]; antidote Guanosine 0.5-5.0 mM): 0%
- Growth, % of Control (Arabidopsis seeds [1]; [8]): 0%
- Growth, % of Control (Arabidopsis seeds [1]; antidote IMP 0.5-5.0 mM): 5%
- growth without the antidote (in words) (Arabidopsis seeds [1]): Growth is not observed
- inhibition of ADSS (in words) ([2]; 5 μM, spectrophotometric assay): is confirmed
- product formation by ADSS ([2]; compound at 100 μM, maize ADSS (not shown)): Product is not formed
- reversibility of ADSS inhibition ([2]; enzyme incubated with 4 μM for 10 min, then Sephadex G-25): inhibition is reversible
- time course of ADSS inhibition ([2]; spectrophotometric assay (FIG. 7, FIG. 8)): Inhibition is initially weak, but becomes greater
- inhibition of ADSS (in words) (ADSS from wheat germ; 10 μM, crude (desalted) extract from wheat germ, HPLC assay (FIG. 5)): Inhibition of ADSS
- product formation by ADSS (ADSS from wheat germ; compound at 100 μM, wheat germ ADSS (not shown)): Product is not formed
- product formation by ADSS (ADSS from E. coli; compound at 100 μM): Product is not formed
- product formation by ADSS (ADSS from rat liver; compound at 100 μM): Product is not formed
- effect on the rate of ASL activity [3]: no effect
- IC90 (Arabidopsis seeds [4]; concentration causing 90% or greater growth inhibition vs control, 7 days, about 28° C.): ~8 µM

Molecule: O=C1NC(=O)C2(N1)O[C@H](CO)[C@@H](O)[C@H]2O (single isomer, unassigned) [hydantocidin, Hydantocidin]
- Growth, % of Control (Arabidopsis seeds [1]; No antidote, 0 mM): 0%
- Growth, % of Control (Arabidopsis seeds [1]; antidote ADP 0.5-5.0 mM): 100%
- Growth, % of Control (Arabidopsis seeds [1]; antidote AMP 0.5-5.0 mM): 100%
- Growth, % of Control (Arabidopsis seeds [1]; antidote ATP 0.5-5.0 mM): 40%
- Growth, % of Control (Arabidopsis seeds [1]; antidote Adenine 0.5-5.0 mM): 60%
- Growth, % of Control (Arabidopsis seeds [1]; antidote Adenosine 0.5-5.0 mM): 80-100%
- Growth, % of Control (Arabidopsis seeds [1]; [6]): 80%
- Growth, % of Control (Arabidopsis seeds [1]; [7]): 0%
- Growth, % of Control (Arabidopsis seeds [1]; antidote Guanine 0.5-5.0 mM): 0%
- Growth, % of Control (Arabidopsis seeds [1]; antidote Guanosine 0.5-5.0 mM): 0%
- Growth, % of Control (Arabidopsis seeds [1]; [8]): 0%
- Growth, % of Control (Arabidopsis seeds [1]; antidote IMP 0.5-5.0 mM): 5%
- reversal of growth inhibition (in words) (Arabidopsis seeds [1]; antidote IMP, doses 50, 100 and 150 μl): did not reverse growth inhibition
- reversal of growth inhibition (in words) (Arabidopsis seeds [1]; antidotes adenosine and AMP, rows B and C, wells 4 through 6): Complete growth is observed
- reversal of inhibition at the lethal concentration (in words) (Arabidopsis seeds [1]; in the presence of AMP, ADP or adenine): completely reversed
- growth without the antidote (in words) (Arabidopsis seeds [1]): Growth is not observed
- inhibition of ADSS (in words) (ADSS from E. coli): neither the E. coli nor the rat liver ADSS are inhibited
- inhibition of ADSS (in words) (ADSS from rat liver): neither the E. coli nor the rat liver ADSS are inhibited
- effect on the rate of ASL activity [3]: no effect
- inhibition of glutamine synthetase (in words) (glutamine synthetase): not inhibited
- reversal of growth inhibition by aromatic amino acids (in words) [5]: not reversed
- IC90 (Arabidopsis seeds [4]; Arabidopsis thaliana, 168 h): ~2 µM

Molecule: COc1c(C)c2c(c(O)c1C/C=C(\C)CCC(=O)O)C(=O)OC2 [MPA, Mycophenolic Acid]
- Growth, % of Control (Arabidopsis seeds [1]; No antidote, 0 mM): 0%
- Growth, % of Control (Arabidopsis seeds [1]; antidote AMP 0.5-5.0 mM): 5%
- Growth, % of Control (Arabidopsis seeds [1]; antidote Adenine 0.5-5.0 mM): 0%
- Growth, % of Control (Arabidopsis seeds [1]; antidote Adenosine 0.5-5.0 mM): 5%
- Growth, % of Control (Arabidopsis seeds [1]; antidote GMP 0.5-5.0 mM): 90%
- Growth, % of Control (Arabidopsis seeds [1]; antidote Guanine 0.5-5.0 mM): 40%
- Growth, % of Control (Arabidopsis seeds [1]; antidote Guanosine 0.5-5.0 mM): 80%
- Growth, % of Control (Arabidopsis seeds [1]; antidote IMP 0.5-5.0 mM): 5%
- growth without the antidote (in words) (Arabidopsis seeds [1]): Growth is not observed
